Measurements taken from patent US7115612B2, “Arylsulfonamides as antiviral agents” (Bayer Aktiengesellschaft, priority 2001, dated 2006).

How the values were obtained:
MCMV = test: Anti-MCMV cytopathogenicity test; assay type: cell-based, murine cytomegalovirus; conditions: for EC50: Murid betaherpesvirus 1, 120 h, MCMV-infected 3T3 mouse cells, M.O.I. 0.05–0.1, 5 days; for SI MCMV: selectivity index, 3T3 CC50 / MCMV EC50
Description: Anti-HCMV (Anti-Human Cytomegalovirus) and anti-MCMV (Anti-Murine Cytomegalovirus) cytopathogenicity tests:
(§1) The test compounds were employed as 50 millimolar (mM) solutions in dimethyl sulphoxide (DMSO). Ganciclovir, foscarnet and cidofovir served as reference compounds. Following the addition of in each case 2 μl of the 50, 5, 0.5 and 0.05 mM DMSO stock solutions to in each case 98μ of cell culture medium in row 2 A-H, in duplicate determinations, 1:2 dilutions with in each case 50 μl of medium were prepared up to row 11 of the 96-well plate. The wells in rows 1 and 12 each contained 50 μl of medium. 150 μl of a suspension of 1×10^4 cells (human lung fibroblasts [HELF]) (row 1=cell control) or, in rows 2–12, a mixture of HCMV-infected and non-infected HELF cells (M.O.I.=0.001–0.002), i.e. 1–2 infected cells per 1000 non-infected cells, were then pipetted into each of the wells. Row 12 (without substance) served as virus control. The final test concentrations were 250–0.0005 μM. The plates were incubated at 37° C./5% CO2 for 6 days, i.e. until all cells in the virus controls had been infected (100% cytopathogenic effect [CPE]). The wells were then fixed and stained by adding a mixture of Formalin and Giemsa Stain (30 minutes), washed with doubly distilled water and dried in a drying cabinet at 50° C. The plates were then evaluated visually using an overhead microscope (plaque multiplier from Technomara).
(§2) Compared to the process described above for HCMV, the anti-MCMV test was carried out with the following changes: a cell-free virus suspension was mixed with a concentrated cell suspension (3T3 mouse cells) and incubated for 15 minutes for adsorption of the viruses, and the suspension was then diluted with medium to 1.3×10^5 cells/ml with a final multiplicity of infection (M.O.I.) of from 0.05–0.1, and in each case 150 μl were dispensed into the wells. The incubation time was 5 days.

HCMV = test: Anti-HCMV cytopathogenicity test; assay type: cell-based, human cytomegalovirus; conditions: for EC50: Human betaherpesvirus 5, 144 h, inhibition of CPE by 50% in HCMV-infected HELF cells, M.O.I. 0.001–0.002, 6 days; for SI HCMV: selectivity index = CC50 (HELF)/EC50 (HCMV)
Description: (§3) Anti-HCMV (Anti-Human Cytomegalovirus) and anti-MCMV (Anti-Murine Cytomegalovirus) cytopathogenicity tests: The test compounds were employed as 50 millimolar (mM) solutions in dimethyl sulphoxide (DMSO). Ganciclovir, foscarnet and cidofovir served as reference compounds. Following the addition of in each case 2 μl of the 50, 5, 0.5 and 0.05 mM DMSO stock solutions to in each case 98μ of cell culture medium in row […], in duplicate determinations, 1:2 dilutions with in each case 50 μl of medium were prepared up to row 11 of the 96-well plate. The wells in rows 1 and 12 each contained 50 μl of medium. 150 μl of a suspension of 1×10^4 cells (human lung fibroblasts [HELF]) (row 1=cell control) or, in rows 2-12, a mixture of HCMV-infected and non-infected HELF cells (M.O.I.=0.001-0.002), i.e. 1-2 infected cells per 1000 non-infected cells, were then pipetted into each of the wells. Row 12 (without substance) served as virus control. The final test concentrations were 250-0.0005 μM. The plates were incubated at 37° C./5% CO2 for 6 days, i.e. until all cells in the virus controls had been infected (100% cytopathogenic effect [CPE]). The wells were then fixed and stained by adding a mixture of Formalin and Giemsa Stain (30 minutes), washed with doubly distilled water and dried in a drying cabinet at 50° C. The plates were then evaluated visually using an overhead microscope (plaque multiplier from Technomara). From the test plates, the following data were determined: EC50 (HCMV)=substance concentration in μM which inhibits the CPE (cytopathic effect) by 50% compared to the untreated virus control; SI (selectivity index)=CC50 (HELF)/EC50 (HCMV).

[1] = Cytotoxicity on 3T3 cells in the anti-MCMV cytopathogenicity test; assay type: cell-based; conditions: mouse, 3T3 mouse cells, 5 days incubation
Description: as §1
(§4) CC50 (HELF)=substance concentration in μM at which, compared to the untreated cell control, no visible cytostatic effects on the cells were noticeable;
as §2

[2] = Cytotoxicity on HELF cells in the anti-HCMV cytopathogenicity test; assay type: cell-based; conditions: human lung fibroblasts (HELF cells), 6 days incubation, visual evaluation
Description: as §3, with “The” for “Anti-HCMV (Anti-Human Cytomegalovirus) and anti-MCMV (Anti-Murine Cytomegalovirus) cytopathogenicity tests: The”, “CC50 (HELF)=substance” for “EC50 (HCMV)=substance”, “at which,” for “which inhibits the CPE (cytopathic effect) by 50%”, “cell control, no visible cytostatic effects on the cells were noticeable;” for “virus control; SI (selectivity index)=CC50 (HELF)/EC50 (HCMV).”

3T3 mouse cells = test: Cytotoxicity on 3T3 cells in the anti-MCMV cytopathogenicity test; assay type: cell-based; conditions: 5 days incubation
Description: as §1, §4, §2

[3] = test system: human lung fibroblasts [HELF]; test: Cytotoxicity on HELF cells in the anti-HCMV cytopathogenicity test; assay type: cell-based; conditions: 6 days incubation, visual evaluation
Description: as §3, with “The” for “Anti-HCMV (Anti-Human Cytomegalovirus) and anti-MCMV (Anti-Murine Cytomegalovirus) cytopathogenicity tests: The”, “CC50 (HELF)=substance” for “EC50 (HCMV)=substance”, “at which,” for “which inhibits the CPE (cytopathic effect) by 50%”, “cell control, no visible cytostatic effects on the cells were noticeable;” for “virus control; SI (selectivity index)=CC50 (HELF)/EC50 (HCMV).”

| melting point | EC50 (MCMV) | EC50 (HCMV) | SMILES | SI MCMV (MCMV) | SI HCMV (HCMV) | CC50 at 5 days [1] | CC50 at 6 days [2] | CC50 (3T3 mouse cells) | CC50 [3] |
| --- | --- | --- | --- | --- | --- | --- | --- | --- | --- |
| 178.9 °C | 19 nM | 55 nM | CC(C)(CF)C(=O)Nc1cccc(NS(=O)(=O)c2ccc(-c3noc(-c4ccccn4)n3)cc2)c1 [Example 1, 3-Fluoro-2,2-dimethyl-N-{3-[({4-[5-(2-pyridinyl)-1,2,4-oxadiazol-3-yl]phenyl}-sulphonyl)amino]phenyl}propanamide] | 1737 | 2000 | 33000 nM | 110000 nM |  |  |
| 202 °C | 8 nM | 18 nM | CC1(C(=O)Nc2cccc(NS(=O)(=O)c3ccc(-c4noc(-c5ccccn5)n4)cc3)c2)CC1 [Example 3, 1-Methyl-N-{3-[({4-[5-(2-pyridinyl)-1,2,4-oxadiazol-3-yl]phenyl}sulphonyl)-amino]phenyl}cyclopropanecarboxamide] | 2875 | <7778 | 23000 nM | < 140000 nM |  |  |
|  | 68 nM | 18 nM | Cc1cc(-c2nc(-c3ccc(S(=O)(=O)Nc4cccc(NC(=O)C5(C)CC5)c4)cc3)no2)n[nH]1 [Example 9, 1-Methyl-N-{3-[({4-[5-(5-methyl-1H-pyrazol-3-yl)-1,2,4-oxadiazol-3-yl]phenyl}-sulphonyl)amino]phenyl}cyclopropanecarboxamide] | 59 | 2167 |  |  | 4000 nM | 39000 nM |
|  | 11 nM | 5.2 nM | CC(C)(CF)C(=O)Nc1cccc(NS(=O)(=O)c2ccc(-c3noc(-c4cccc(N)n4)n3)cc2)c1 [Example 135, N-{3-[({4-[5-(6-Amino-2-pyridinyl)-1,2,4-oxadiazol-3-yl]phenyl}sulphonyl)amino]-phenyl}-3-fluoro-2,2-dimethylpropanamide] | 273 | 9039 | 3000 nM | 47000 nM |  |  |
